# In patent US20240315994A1, “SMALL MOLECULE MODULATORS OF FERROPTOSIS” (ARPEGGIO BIOSCIENCES, INC., priority 2021, published 2024):
# pIC50: −log10 of the molar value.
# Test system: HT1080 cells (ATCC, cat #CCL-121)
# Assay: HT1080 CellTiter-Glo 2.0 IC50 assay of working examples
# Type: cell-based
# Conditions: HT-1080, 24 hrs, cells plated with and without 1.5 μM ferrostatin-1, table does not say which, Table 7
# Experimental: Biological evaluation of working examples A1-A47 and B1-B28 was performed in HT1080 cells (ATCC, cat #CCL-121) according to the procedure provided below.
# • 1.1 Cells were harvested from flask into cell culture medium and then the cell number count was determined. • 1.2 The cells were suspended with 1.5 μM ferrostatin-1 and without ferrostatin-1. • 1.3 Cells were plated at a density of 1,500 cells per well in a 384-well black sided clear bottom plate, in 25 μL, using electronic multichannel pipette. • 1.4 Plates were covered with lid and spun for 1 min at 1000 rpm, then allowed to incubate overnight at 37° C. under 5% CO2.
# • 2.1 Compounds were dissolved at 10 mM stock solution and 10 μl of diluted solution was transferred to a 384 LDV-plate (LABCYTE, LP-0200). A 3 fold, 11-point dilution was performed. • 2.2 Cells were treated with compounds by plate reformat Echo software and spun for 1 min at 1000 rpm. Then incubated at 37° C. for 24 hrs in a CO2 incubator.
# • 3.1 The plates were removed from the incubator and allowed to equilibrate to room temperature, at least 30 minutes. • 3.2 CellTiter-Glo® 2.0 Reagent (Promega, G9242) was added (25 μL) to the assay plates and spun for 1 min at 1000 rpm. Then allowed to stand for about 20 minutes before reading luminescence signal on Envision. • 3.3 The IC50 calculations were determined with a nonlinear fit, variable slope (four parameters) log(inhibitor) vs. response model using GraphPad PRISM.
row,SMILES,pIC50
1,"Cc1cc(C)cc(N(Cc2ccc(F)cc2)C(=O)CCl)c1 [Compound A1, 2-chloro-N-(3,5-dimethylphenyl)-N-[(4-fluorophenyl)methyl]acetamide]",6.00 to 7.00
2,"COc1ccc(CN(C(=O)CCl)c2cc(C)cc(C)c2)cc1 [Compound A2, 2-chloro-N-(3,5-dimethylphenyl)-N-[(4-methoxyphenyl)methyl]acetamide]",7.00 to 8.00
3,"COc1cc(OC)cc(N(Cc2ccc(F)cc2)C(=O)CCl)c1 [Compound A3, 2-chloro-N-(3,5-dimethoxyphenyl)-N-[(4-fluorophenyl)methyl]acetamide]",7.00 to 8.00
4,"Cc1cc(C)cc(N(Cc2ccc(Cl)cc2)C(=O)CCl)c1 [Compound A4, 2-chloro-N-[(4-chlorophenyl)methyl]-N-(3,5-dimethylphenyl)acetamide]",6.00 to 7.00
5,"COc1cccc(CN(C(=O)CCl)c2cc(C)cc(C)c2)c1 [Compound A5, 2-chloro-N-(3,5-dimethylphenyl)-N-[(3-methoxyphenyl)methyl]acetamide]",7.00 to 8.00
6,"Cc1cc(C)cc(N(Cc2ccccc2Cl)C(=O)CCl)c1 [Compound A6, 2-chloro-N-[(2-chlorophenyl)methyl]-N-(3,5-dimethylphenyl)acetamide]",6.00 to 7.00
7,"COc1ccccc1CN(C(=O)CCl)c1cc(C)cc(C)c1 [Compound A7, 2-chloro-N-(3,5-dimethylphenyl)-N-[(2-methoxyphenyl)methyl]acetamide]",7.00 to 8.00
8,"Cc1cccc(CN(C(=O)CCl)c2cc(C)cc(C)c2)c1 [Compound A8, 2-chloro-N-(3,5-dimethylphenyl)-N-(m-tolylmethyl)acetamide]",7.00 to 8.00
9,"Cc1cc(C)cc(N(Cc2cccc(Cl)c2)C(=O)CCl)c1 [Compound A9, 2-chloro-N-[(3-chlorophenyl)methyl]-N-(3,5-dimethylphenyl)acetamide]",7.00 to 8.00
10,"Cc1ccc(CN(C(=O)CCl)c2cc(C)cc(C)c2)cc1 [Compound A10, 2-chloro-N-(3,5-dimethylphenyl)-N-(p-tolylmethyl)acetamide]",6.00 to 7.00
11,"Cc1cc(C)cc(N(Cc2ccccc2C)C(=O)CCl)c1 [Compound A11, 2-chloro-N-(3,5-dimethylphenyl)-N-(o-tolylmethyl)acetamide]",6.00 to 7.00
12,"O=C(CCl)N(Cc1ccc(F)cc1)C1CCCCC1 [Compound A12, 2-chloro-N-cyclohexyl-N-[(4-fluorophenyl)methyl]acetamide]",6.00 to 7.00
13,"COc1cccc(N(Cc2ccc(F)cc2)C(=O)CCl)c1 [Compound A13, 2-chloro-N-[(4-fluorophenyl)methyl]-N-(3-methoxyphenyl)acetamide]",6.00 to 7.00

# Further lines, results first:
row,pIC50,SMILES
1,6.00 to 7.00,"COc1cc(Cl)cc(N(Cc2ccc(F)cc2)C(=O)CCl)c1 [Compound A14, 2-chloro-N-(3-chloro-5-methoxy-phenyl)-N-[(4-fluorophenyl)methyl]acetamide]"
2,5.00 to 6.00,"O=C(CCl)N(Cc1ccc(F)cc1)c1cc(F)cc(F)c1 [Compound A15, 2-chloro-N-(3,5-difluorophenyl)-N-[(4-fluorophenyl)methyl]acetamide]"
3,6.00 to 7.00,"O=C(CCl)N(Cc1ccc(F)cc1)c1cc(Cl)cc(Cl)c1 [Compound A16, 2-chloro-N-(3,5-dichlorophenyl)-N-[(4-fluorophenyl)methyl]acetamide]"
4,6.00 to 7.00,"COc1ccc(N(Cc2ccc(F)cc2)C(=O)CCl)cc1Cl [Compound A17, 2-chloro-N-(3-chloro-4-methoxy-phenyl)-N-[(4-fluorophenyl)methyl]acetamide]"
5,6.00 to 7.00,"O=C(CCl)N(Cc1ccc(F)cc1)c1cccc(Cl)c1 [Compound A18, 2-chloro-N-(3-chlorophenyl)-N-[(4-fluorophenyl)methyl]acetamide]"
6,7.00 to 8.00,"COc1cc(OC)cc(N(Cc2ccc(C#N)cc2)C(=O)CCl)c1 [Compound A19, 2-chloro-N-[(4-cyanophenyl)methyl]-N-(3,5-dimethoxyphenyl)acetamide]"
7,7.00 to 8.00,"COc1cc(OC)cc(N(Cc2cccc(F)c2F)C(=O)CCl)c1 [Compound A20, 2-chloro-N-[(2,3-difluorophenyl)methyl]-N-(3,5-dimethoxyphenyl)acetamide]"
